A word on the EC50: it is the concentration needed to bring the measured effect to its halfway point. In general, IC50 refers to the concentration that gives 50% inhibition. Low readings indicate inhibition by little substance, high ones a need for much substance.

The values below come from paper PMC5609913, “Structure based design, synthesis and activity studies of small hybrid molecules as HDAC and G9a dual inhibitors” (Oncotarget, 2017).

Read-outs that look alike come from different tables or passages of the source.

One assay has as its system MCF-7 cells. In words: Cell anti-proliferation / toxicity assay (CCK-8), MCF-7. Conditions: Homo sapiens, MCF7, 72 h, CCK-8, read-out: EC50 MCF-7. Format: cell-based. The procedure:
Cell anti-proliferation assays were performed to determine the toxicity of these inhibitors. […] These compounds were further evaluated against the control cell line HEK293 to test their toxicity with a non-cancerous cell line.
And then the cells were exposed to the different inhibitors with various concentrations for 72 h. […] EC50s were calculated using GraphPad Prizm statistical package with sigmoidal variable slope dose response curve fit.

A further assay addresses T1, G9a (Homo sapiens, UniProt Q96KQ7).
T1 construct: endogenous in cells; host or cells: MDA-MB-231
T1 sequence (Q96KQ7 1-1210): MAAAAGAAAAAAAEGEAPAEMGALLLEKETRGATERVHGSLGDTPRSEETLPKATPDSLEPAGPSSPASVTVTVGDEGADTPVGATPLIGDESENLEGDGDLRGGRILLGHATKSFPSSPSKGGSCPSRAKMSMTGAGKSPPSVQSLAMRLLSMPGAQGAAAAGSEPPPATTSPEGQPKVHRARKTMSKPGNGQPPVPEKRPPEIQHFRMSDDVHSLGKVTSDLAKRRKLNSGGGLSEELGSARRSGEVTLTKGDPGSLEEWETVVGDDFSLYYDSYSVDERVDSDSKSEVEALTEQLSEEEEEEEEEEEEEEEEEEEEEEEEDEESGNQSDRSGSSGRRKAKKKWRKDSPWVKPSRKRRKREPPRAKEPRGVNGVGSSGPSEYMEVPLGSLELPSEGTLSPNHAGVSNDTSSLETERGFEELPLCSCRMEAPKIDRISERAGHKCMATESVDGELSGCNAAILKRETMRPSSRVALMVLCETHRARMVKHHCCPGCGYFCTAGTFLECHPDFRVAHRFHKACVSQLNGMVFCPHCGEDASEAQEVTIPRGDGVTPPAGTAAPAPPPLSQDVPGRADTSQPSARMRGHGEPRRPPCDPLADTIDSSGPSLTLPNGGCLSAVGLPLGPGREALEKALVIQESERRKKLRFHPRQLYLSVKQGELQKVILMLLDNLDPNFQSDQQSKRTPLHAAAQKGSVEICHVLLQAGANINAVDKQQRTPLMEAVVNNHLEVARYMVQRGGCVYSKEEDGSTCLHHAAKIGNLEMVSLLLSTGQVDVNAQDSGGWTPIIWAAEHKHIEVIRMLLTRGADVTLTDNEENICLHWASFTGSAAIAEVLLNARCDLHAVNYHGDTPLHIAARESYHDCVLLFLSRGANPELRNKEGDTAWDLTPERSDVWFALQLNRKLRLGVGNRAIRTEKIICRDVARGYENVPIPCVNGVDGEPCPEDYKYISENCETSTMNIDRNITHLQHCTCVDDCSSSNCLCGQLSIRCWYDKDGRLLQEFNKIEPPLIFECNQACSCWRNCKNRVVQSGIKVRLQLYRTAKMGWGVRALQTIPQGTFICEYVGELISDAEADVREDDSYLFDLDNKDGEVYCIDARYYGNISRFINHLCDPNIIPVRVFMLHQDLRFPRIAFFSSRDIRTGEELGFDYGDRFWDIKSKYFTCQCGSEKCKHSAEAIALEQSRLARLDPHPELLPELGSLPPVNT
In words: H3K9Me2 cell immunofluorescence In-Cell Western (ICW) assay in MDA-MB-231. Conditions: MDA-MB-231 cell line, 48 h exposure. Format: cell-based. The protocol: After the incubation, the media was removed and 100 μl fixation and permeabilization solution (2% formaldehyde in PBS) for fixation was added for 30 min. And then use 200 μl 0.1% Triton X100 in PBS washing solution to wash (allow wash to shake on a plate shaker for 5 min). After five washes, cells were blocked for 1 h with 150 μl blocking buffer to each well (1% BSA in PBS) (allow blocking at room temperature with moderate shaking on a plate shaker). After 1 h, remove the blocking buffer from the blocking step and add primary antibody in blocking buffer to cover the bottom of each well. […] The plates were read on an Odyssey CLX (LiCor) scanner at both 800 nm (H3K9me2 signal) and 700 nm (cell tag 700 stain signal) channels. IC50s were calculated using GraphPad Prizm statistical package with sigmoidal variable slope dose response curve fit.

Where [1] appears, read: Supplementary Table 4, >100 = not reached at 100 μM.
Setting [2] is: Table 6, mean ± SD of triplicates.

Turning to `COc1cc2nc(NCCNC(=O)CCCC(=O)NO)nc(NC3CCN(C)CC3)c2cc1OC` [Compound 7, N1-(2-((6,7-dimethoxy-4-((1-methylpiperidin-4-yl)amino)quinazolin-2-yl)amino)ethyl)-N5-hydroxyglutaramide], the EC50 with MCF-7 cells (setting [1]) is more than 100 µM. Further, the IC50 against G9a came to 76.7 ± 0.89 µM.

Turning to `COc1ccc2c(NC3CCN(Cc4ccccc4)CC3)nc(NCCNC(=O)CCCC(=O)NO)nc2c1` [Compound 16, N1-(2-((4-((1-benzylpiperidin-4-yl)amino)-7-methoxyquinazolin-2-yl)amino)ethyl)-N5-hydroxyglutaramide], the EC50 with MCF-7 cells (setting [1]) is 57.3 µM. For the same compound, at G9a, half-maximal inhibition (IC50) was put at 90.3 ± 3.75 µM.

Consider `COc1ccc2c(NC3CCN(C)CC3)nc(NCCNC(=O)CCCC(=O)NO)nc2c1` [Compound 16a, N1-hydroxy-N5-(2-((7-methoxy-4-((1-methylpiperidin-4-yl)amino)quinazolin-2-yl)amino)ethyl)glutaramide], for which the EC50 in the assay on MCF-7 cells (setting [1]) is more than 100 µM. The midpoint of inhibition on G9a, the IC50, lay at 45.7 ± 1.76 µM.

Take `COc1ccc2c(NC3CCN(Cc4ccccc4)CC3)nc(NCCNC(=O)CCCCCCC(=O)NO)nc2c1` [Compound 13, N1-(2-((4-((1-benzylpiperidin-4-yl)amino)-7-methoxyquinazolin-2-yl)amino)ethyl)-N8-hydroxyoctanediamide]: the EC50 in the assay with MCF-7 cells (setting [2]) was 79.4 ± 2.72 µM. At G9a, this compound showed an IC50 of 37.8 ± 2.8 µM.

As to `COc1cc2nc(NCCNC(=O)CCCCCC(=O)NO)nc(NC3CCN(Cc4ccccc4)CC3)c2cc1OC` [Compound 5b, N1-(2-((4-((1-benzylpiperidin-4-yl)amino)-6,7-dimethoxyquinazolin-2-yl)amino)ethyl)-N7-hydroxyheptanediamide], the EC50 in the assay with MCF-7 cells (setting [1]) was determined as 74.6 ± 1.81 µM. The compound also showed an IC50 against G9a of 87.4 ± 5.44 µM.

Consider `COc1cc2nc(NCCNC(=O)CCCCCC(=O)NO)nc(NC3CCN(C(C)C)CC3)c2cc1OC` [Compound 5a, N1-hydroxy-N7-(2-((4-((1-isopropylpiperidin-4-yl)amino)-6,7-dimethoxyquinazolin-2-yl)amino)ethyl)heptanediamide], for which, in the assay on MCF-7 cells (setting [1]), the EC50 was more than 100 µM. In addition, half-maximal inhibition at G9a (IC50) was put at 66.6 ± 3.98 µM.

Take `COc1cc2nc(N3CCCN(C)CC3)nc(NC3CCN(C(=O)CCCCCCC(=O)NO)CC3)c2cc1OC` [Compound 19, 8-(4-((6,7-dimethoxy-2-(4-methyl-1,4-diazepan-1-yl)quinazolin-4-yl)amino)piperidin-1-yl)-N-hydroxy-8-oxooctanamide]: the EC50 in the assay with MCF-7 cells (setting [1]) is more than 100 µM. Besides, the IC50 against G9a was determined as 99.6 ± 3.13 µM.

As to `COc1ccc2c(NC3CCN(Cc4ccccc4)CC3)nc(NCCNC(=O)CCCCC(=O)NO)nc2c1` [Compound 15, N1-(2-((4-((1-benzylpiperidin-4-yl)amino)-7-methoxyquinazolin-2-yl)amino)ethyl)-N6-hydroxyadipamide], the EC50 in the assay on MCF-7 cells (setting [1]) is more than 100 µM. At G9a, this compound came in with an IC50 of 72.1 ± 1.37 µM.

Consider `COc1cc2nc(NCCNC(=O)CCCC(=O)NO)nc(NC3CCN(C(C)C)CC3)c2cc1OC` [Compound 7a, N1-hydroxy-N5-(2-((4-((1-isopropylpiperidin-4-yl)amino)-6,7-dimethoxyquinazolin-2-yl)amino)ethyl)glutaramide], for which the EC50 with MCF-7 cells (setting [1]) is more than 100 µM. Also, inhibition against G9a was half-maximal at 54.6 ± 3.05 µM (IC50).

As to `COc1cc2nc(NCCNC(=O)CCCCCCC(=O)NO)nc(NC3CCN(C)CC3)c2cc1OC` [Compound 4, N1-(2-((6,7-dimethoxy-4-((1-methylpiperidin-4-yl)amino)quinazolin-2-yl)amino)ethyl)-N8-hydroxyoctanediamide], the EC50 in the assay with MCF-7 cells (setting [1]) was more than 100 µM. Further, the IC50 on G9a was 96.7 ± 1.68 µM.

On to `COc1cc2nc(N3CCCN(C)CC3)nc(NC3CCN(C(=O)CCCCCC(=O)NO)CC3)c2cc1OC` [Compound 20, 7-(4-((6,7-dimethoxy-2-(4-methyl-1,4-diazepan-1-yl)quinazolin-4-yl)amino)piperidin-1-yl)-N-hydroxy-7-oxoheptanamide], for which the EC50 with MCF-7 cells (setting [1]) was more than 100 µM. Besides, at G9a, 97.5 ± 2.78 µM corresponded to half-maximal inhibition (IC50).

Consider `COc1ccc2c(NC3CCN(C)CC3)nc(NCCNC(=O)CCCCC(=O)NO)nc2c1` [Compound 15a, N1-hydroxy-N6-(2-((7-methoxy-4-((1-methylpiperidin-4-yl)amino)quinazolin-2-yl)amino)ethyl)adipamide], for which the EC50 in the assay on MCF-7 cells (setting [1]) is more than 100 µM. The IC50 against G9a amounted to 47 ± 3.33 µM.

`COc1ccc2c(NC3CCN(Cc4ccccc4)CC3)nc(NCCNC(=O)CCCCCC(=O)NO)nc2c1` [Compound 14, N1-(2-((4-((1-benzylpiperidin-4-yl)amino)-7-methoxyquinazolin-2-yl)amino)ethyl)-N7-hydroxyheptanediamide]: in the assay on MCF-7 cells (setting [2]), the EC50 was 37.4 ± 2.2 µM. The compound also registered an IC50 against G9a of 7.14 ± 1.62 µM.

Regarding `COc1cc2nc(NCCNC(=O)CCCCCCC(=O)NO)nc(NC3CCN(C(C)C)CC3)c2cc1OC` [Compound 4a, N1-hydroxy-N8-(2-((4-((1-isopropylpiperidin-4-yl)amino)-6,7-dimethoxyquinazolin-2-yl)amino)ethyl)octanediamide], the EC50 with MCF-7 cells (setting [1]) is more than 100 µM. Also, the IC50 on G9a worked out at 74.2 ± 1.94 µM.

For `COc1ccc2c(NCCNC(=O)CCCCCC(=O)NO)nc(N3CCCN(C)CC3)nc2c1` [Compound 22, N1-hydroxy-N7-(2-((7-methoxy-2-(4-methyl-1,4-diazepan-1-yl)quinazolin-4-yl)amino)ethyl)heptanediamide], in the assay on MCF-7 cells (setting [1]), the EC50 was more than 100 µM. Also, at G9a, 60.6 ± 3.66 µM corresponded to half-maximal inhibition (IC50).
